Data reported in patent US20190119282A1, “IMIDAZOPYRIDAZINES USEFUL AS INHIBITORS OF THE PAR-2 SIGNALING PATHWAY” (Vertex Pharmaceuticals Incorporated, priority 2013, published 2019).

Assays:
[1] = system: UTP-stimulated Ca2+ response in HT-29 cells; assay: Ca FLIPR TETRA assay, ANTAGONIST mode, stimulation with 0.6 μM UTP; format: cell-based, human; details: Homo sapiens, HT-29 cells
Outline: (§1)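 HT-29 cells grown overnight in 1% FBS McCoy's medium were loaded with calcium 5 dye (45 min 37 °C, 15 min r.t.). Compounds were added and Ca2+ read for direct activation, then after 30 min at r.t. cells were stimulated with 8 μM SLIGKV, 1 U/mL thrombin, 3.1 U/mL trypsin or 0.6 μM UTP (final).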

[2] = target: T1, PAR2 (HT-29 cells, SLIGKV activation) (Homo sapiens, UniProt P55085); assay: Ca FLIPR TETRA assay, ANTAGONIST mode, stimulation with 8 μM SLIGKV; format: cell-based; details: HT-29 cells
T1 construct: host or cells: HT-29 cells
T1 sequence (P55085 26-397): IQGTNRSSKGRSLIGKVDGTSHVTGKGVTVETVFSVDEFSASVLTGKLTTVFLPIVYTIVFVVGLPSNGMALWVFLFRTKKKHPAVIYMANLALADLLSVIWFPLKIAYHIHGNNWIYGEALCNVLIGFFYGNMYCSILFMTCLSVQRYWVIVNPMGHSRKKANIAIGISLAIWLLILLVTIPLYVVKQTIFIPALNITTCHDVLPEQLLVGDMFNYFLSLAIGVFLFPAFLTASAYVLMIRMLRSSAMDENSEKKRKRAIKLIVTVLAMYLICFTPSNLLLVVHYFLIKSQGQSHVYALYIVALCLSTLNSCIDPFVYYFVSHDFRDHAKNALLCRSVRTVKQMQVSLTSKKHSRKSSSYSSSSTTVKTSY
Outline: as §1

[3] = system: Thrombin-stimulated Ca2+ response in HT-29 cells; assay: Ca FLIPR TETRA assay, ANTAGONIST mode, stimulation with 1 U/mL Thrombin; format: cell-based, human; details: Homo sapiens, HT-29 cells
Outline: as §1

[4] = target: T2, PAR2 (HT-29 cells, trypsin activation) (Homo sapiens, UniProt P55085); assay: Ca FLIPR TETRA assay, ANTAGONIST mode, stimulation with 3.1 U/mL trypsin; format: cell-based; details: HT-29 cells
T2 construct: host or cells: HT-29 cells
T2 sequence (P55085 26-397): T1 sequence (P55085 26-397)
Outline: as §1

[5] = antagonist mode, stimulation with 0.6 μM UTP
[6] = antagonist mode, stimulation with 8 μM SLIGKV
[7] = antagonist mode, stimulation with 1 U/mL Thrombin
[8] = antagonist mode, stimulation with 3.1 U/mL trypsin
[9] = antagonist mode, 1 U/mL Thrombin
[10] = antagonist mode, 3.1 U/mL trypsin
[11] = stimulation with 1 U/mL Thrombin
[12] = stimulation with 3.1 U/mL trypsin

Structure (SMILES)	IC50 [1, 5] [nM]	IC50 [2, 6] [nM]	IC50 [3, 7] [nM]	IC50 [4, 8] [nM]	further results
CC1(C)C(=O)NCCN1C(=O)c1cn2nc(-c3ccc(F)cc3)cc(-c3ccncc3)c2n1 [Compound I-569]					IC50 ([1]; antagonist mode, 0.6 μM UTP): > 1000 nM; IC50 ([2]; antagonist mode, 8 μM SLIGKV): 395 nM; IC50 [3, 9]: > 1000 nM; IC50 [4, 10]: 640 nM
CC(C)c1cc(-c2ccc(F)cc2)nn2cc(C(=O)N3CCNC(=O)C3(C)C)nc12 [Compound I-25, 4-[6-(4-fluorophenyl)-8-isopropyl-imidazo[1,2-b]pyridazine-2-carbonyl]-3,3-dimethyl-piperazin-2-one]					IC50 ([1]; stimulation with 0.6 μM UTP): > 50000 nM; IC50 ([2]; stimulation with 8 μM SLIGKV): 9 nM; IC50 [3, 11]: > 50000 nM; IC50 [4, 12]: 21 nM
CC(C)c1cc(C2=CCOCC2)nn2cc(C(=O)N3CCN(C(=O)C4(O)CCC4)CC3(C)C)nc12 [Compound I-44, [6-(3,6-dihydro-2H-pyran-4-yl)-8-isopropyl-imidazo[1,2-b]pyridazin-2-yl]-[4-(1-hydroxycyclobutanecarbonyl)-2,2-dimethyl-piperazin-1-yl]methanone]					IC50 ([1]; stimulation with 0.6 μM UTP): > 50000 nM; IC50 ([2]; stimulation with 8 μM SLIGKV): 5000 nM; IC50 [3, 11]: > 50000 nM; IC50 [4, 12]: 9500 nM
COC(=O)[C@@H]1C[C@@H](C)CN(C(=O)c2cn3nc(-c4ccc(F)cc4)cc(C(F)(F)F)c3n2)C1 [Compound I-49]					IC50 ([1]; stimulation with 0.6 μM UTP): 6000 nM; IC50 ([2]; stimulation with 8 μM SLIGKV): 530 nM; IC50 [3, 11]: 5200 nM; IC50 [4, 12]: 1500 nM
CC(C)c1cc(-c2ccc(F)cc2)nn2cc(C(=O)N3CCN(C(=O)C(O)c4ccc(F)cc4)[C@@H](C)C3)nc12 (stereo partly shown) [Compound I-108]					IC50 ([1]; stimulation with 0.6 μM UTP): 16000 nM; IC50 ([2]; stimulation with 8 μM SLIGKV): 0.7 nM; IC50 [3, 11]: 8300 nM; IC50 [4, 12]: 0.7 nM
CC(C)c1cc(-c2ccc(F)cc2)nn2cc(C(=O)N3CCN(C(=O)CC4CCOCC4)[C@@H](C)C3)nc12 [Compound I-141]					IC50 ([1]; stimulation with 0.6 μM UTP): 24000 nM; IC50 ([2]; stimulation with 8 μM SLIGKV): 16 nM; IC50 [3, 11]: 19000 nM; IC50 [4, 12]: 130 nM
Cc1cc(F)ccc1-c1cc(C(C)(C)C)c2nc(C(=O)N3CCNC(=O)C3(C)C)cn2n1 [Compound I-439]	> 1000	81	> 1000	125	
CC1(C)C(=O)NCCN1C(=O)c1cn2nc(-c3ccc(F)cc3)cc(-c3cccnc3)c2n1 [Compound I-568]					IC50 ([1]; antagonist mode, 0.6 μM UTP): > 1000 nM; IC50 ([2]; antagonist mode, 8 μM SLIGKV): 520 nM; IC50 [3, 9]: > 1000 nM; IC50 [4, 10]: 620 nM
CC(C)(C)c1cc(-c2ccc(F)cc2)nn2cc(C(=O)N3CCNC(=O)C34CCCC4)nc12 [Compound I-462, 6-(8-(tert-butyl)-6-(4-fluorophenyl)imidazo[1,2-b]pyridazine-2-carbonyl)-6,9-diazaspiro[4.5]decan-10-one]	> 1000	2.2	> 1000	3.7	
CC1CN(C(=O)c2cn3nc(-c4ccc(F)cc4)cc(C(F)(F)F)c3n2)CCC1O (stereo not shown) [Compound I-68]					IC50 ([1]; stimulation with 0.6 μM UTP): 29000 nM; IC50 ([2]; stimulation with 8 μM SLIGKV): 5900 nM; IC50 [3, 11]: 19000 nM; IC50 [4, 12]: 13000 nM
Cc1ccc(-c2cc(C(C)C)c3nc(C(=O)N4CCN(C(=O)c5nc(C)n[nH]5)CC4(C)C)cn3n2)cc1 [Compound I-334]	> 1000	4.6	> 1000	4.8	
Cc1cc(C(=O)N2CCN(C(=O)c3cn4nc(-c5ccc(F)cc5)cc(C(C)(C)C)c4n3)C(C)(C)C2)no1 [Compound I-433]	> 1000	0.7	> 1000	1.1	
CC(C)(C)c1cc(-c2ccc(Cl)c(F)c2)nn2cc(C(=O)N3CCN(C(=O)c4ccn[nH]4)CC3(C)C)nc12 [Compound I-454]	> 1000	0.4	> 1000	0.7	
C=CC(=O)N1CCN(C(=O)c2cn3nc(-c4ccc(F)cc4)cc(C(C)C)c3n2)C(C)(C)C1 [Compound I-160]					IC50 ([1]; stimulation with 0.6 μM UTP): 14000 nM; IC50 ([2]; stimulation with 8 μM SLIGKV): 10 nM; IC50 [3, 11]: 7900 nM; IC50 [4, 12]: 41 nM
COC(=O)C1CC(C(=O)N2CCN(C(=O)c3cn4nc(-c5ccc(Cl)cc5)cc(C(C)C)c4n3)C(C)(C)C2)C1 (stereo not shown) [Compound I-544]	> 1000	1.5	> 1000	1.8	

Further lines, with some results ahead:

IC50 [1, 5] [nM]	IC50 [2, 6] [nM]	IC50 [3, 7] [nM]	IC50 [4, 8] [nM]	Structure (SMILES)	further results
> 1000	13.3	> 1000	30.3	CC1(C)CN(C(=O)c2ccn[nH]2)CCN1C(=O)c1cn2nc(-c3ccc(F)cc3)cc(C(F)(F)F)c2n1 [Compound I-271]	
> 1000	2.4	> 1000	20	CC(C)(C)c1cc(C2CCC(F)(F)CC2)nn2cc(C(=O)N3CCN(c4cc[nH]n4)C(=O)C3(C)C)nc12 [Compound I-474]	
> 1000	68	> 1000	185	CC(C)c1cc(-c2ccc(F)cc2)nn2cc(C(=O)N3CCN(C(=O)c4ccnnc4)CC3(C)C)nc12 [Compound I-306]	
> 1000	85	> 1000	103	CC(C)(C)c1cc(-c2ccc(F)cc2)nn2cc(C(=O)N3CCN(C(F)F)C(=O)C3(C)C)nc12 [Compound I-208]	
> 1000	3.2	> 1000	6.4	CC(C)c1cc(-c2ccc(F)cc2)nn2cc(C(=O)N3CCN(C(=O)c4ccn[nH]4)CC3(C)C)nc12 [Compound I-239]	
> 1000	12.6	> 1000	8.2	Cc1cc(-c2cc(C(C)C)c3nc(C(=O)N4CCN(C(=O)c5nc[nH]n5)CC4(C)C)cn3n2)ccc1F [Compound I-342]	
> 1000	16.3	> 1000	23.8	CC(C)(C)c1cc(C2CCC(F)(F)CC2)nn2cc(C(=O)N3CCN(c4c[nH]cn4)C(=O)C3(C)C)nc12 [Compound I-430]	
> 1000	0.8	> 1000	1.2	Cc1nnc(C(=O)N2CCN(C(=O)c3cn4nc(-c5ccc(Cl)cc5)cc(C(C)(C)C)c4n3)C(C)(C)C2)o1 [Compound I-443]	
> 1000	1.5	> 1000	2.6	CC(C)(C)c1cc(-c2ccc(F)c(Cl)c2)nn2cc(C(=O)N3CCNC(=O)C3(C)C)nc12 [Compound I-438]	
> 1000	1.8	> 1000	1.5	CC(C)(C)c1cc(-c2ccc(C(F)(F)F)cc2)nn2cc(C(=O)N3CCN(C(=O)c4ncccn4)CC3(C)C)nc12 [Compound I-399]	
> 1000	6.2	> 1000	16.5	CC(C)c1cc(-c2ccc(F)c(F)c2)nn2cc(C(=O)N3CCN(C(=O)c4ccncn4)CC3(C)C)nc12 [Compound I-259]	
> 1000	56.6	> 1000	58.5	Cn1nnnc1N1CCN(C(=O)c2cn3nc(-c4ccc(F)cc4)cc(C(C)(C)C)c3n2)C(C)(C)C1=O [Compound I-248]	
> 1000	4.7	> 1000	7.9	CC(C)(C)c1cc(C2CCC(F)(F)CC2)nn2cc(C(=O)N3CCN(C(=O)[C@H]4CC[C@@H](C(=O)O)CC4)CC3(C)C)nc12 [Compound I-533]	
> 1000	5.4	> 1000	4.5	Cc1nnc(C(=O)N2CCN(C(=O)c3cn4nc(-c5ccc(C)c(F)c5)cc(C(C)C)c4n3)C(C)(C)C2)o1 [Compound I-337]	
> 1000	12.9	> 1000	13.7	Cc1cccc(-c2cc(C(C)(C)C)c3nc(C(=O)N4CCNC(=O)C4(C)C)cn3n2)c1 [Compound I-350]	
> 1000	0.5	> 1000	0.6	Cc1ncc(C(=O)N2CCN(C(=O)c3cn4nc(-c5ccc(Cl)cc5)cc(C(C)(C)C)c4n3)C(C)(C)C2)[nH]1 [Compound I-441]	
1270	17.3	1140	40.3	C[C@@H]1CN(c2cc(-c3ccc(F)cc3)nn3cc(C(=O)N4CCNC(=O)C4(C)C)nc23)C[C@H](C)O1 [Compound I-182]	
> 1000	8.8	> 1000	13.7	CC(C)c1cc(-c2ccc(C(F)F)cc2)nn2cc(C(=O)N3CCN(C(=O)c4nc[nH]n4)CC3(C)C)nc12 [Compound I-294]	
440	0.5	760	0.5	CC(C)(C)c1cc(-c2ccc(F)cc2)nn2cc(C(=O)N3CCN(C(=O)[C@H]4CC[C@@H](C(=O)O)CC4)CC3(C)C)nc12 [Compound I-493, (1S,4S)-4-(4-(8-(tert-butyl)-6-(4-fluorophenyl)imidazo[1,2-b]pyridazine-2-carbonyl)-3,3-dimethylpiperazine-1-carbonyl)cyclohexane-1-carboxylic acid]	
